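Five compound concentrations were applied to cells in 96-well plates for 48 hours; endpoints were derived by simple linear interpolation of the resulting dose-response curve. GI50 is the concentration that inhibits growth by half. At the TGI there is no net growth.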
Legend:
Assay in all cases: inhibition of tumour cell growth, NCI panel, 48 h
SF-295 CNS = tested on: SF-295 CNS
HCT-15 colon = tested on: HCT-15 colon
RXF 393 renal = tested on: RXF 393 renal
HCT-116 colon = tested on: HCT-116 colon
786-0 renal = tested on: 786-0 renal
ACHN renal = tested on: ACHN renal
SNB-19 CNS = tested on: SNB-19 CNS
SK-MEL-28 melanoma = tested on: SK-MEL-28 melanoma
A549 NSCLC = tested on: A549 NSCLC
SK-OV-3 ovarian = tested on: SK-OV-3 ovarian
CAKI-1 renal = tested on: CAKI-1 renal
MDA-MB-435 = tested on: MDA-MB-435
CCRF-CEM leukemia = tested on: CCRF-CEM leukemia
UACC-62 melanoma = tested on: UACC-62 melanoma
HCC-2998 colon = tested on: HCC-2998 colon
M14 melanoma = tested on: M14 melanoma
HOP-62 NSCLC = tested on: HOP-62 NSCLC
BT-549 breast = tested on: BT-549 breast
LOX IMVI melanoma = tested on: LOX IMVI melanoma
NCI-H23 lung = tested on: NCI-H23 lung
MCF7 breast = tested on: MCF7 breast
OVCAR-4 ovarian = tested on: OVCAR-4 ovarian
HT29 colon = tested on: HT29 colon
T-47D breast = tested on: T-47D breast
SR leukemia = tested on: SR leukemia
UACC-257 melanoma = tested on: UACC-257 melanoma
SF-539 CNS = tested on: SF-539 CNS
OVCAR-5 ovarian = tested on: OVCAR-5 ovarian
RPMI-8226 leukemia = tested on: RPMI-8226 leukemia
COLO 205 colon = tested on: COLO 205 colon
MOLT-4 leukemia = tested on: MOLT-4 leukemia
SN12C renal = tested on: SN12C renal
OVCAR-8 ovarian = tested on: OVCAR-8 ovarian
SK-MEL-2 melanoma = tested on: SK-MEL-2 melanoma
HS 578T breast = tested on: HS 578T breast
NCI-H522 lung = tested on: NCI-H522 lung
SK-MEL-5 melanoma = tested on: SK-MEL-5 melanoma
HL-60(TB) leukemia = tested on: HL-60(TB) leukemia
SNB-75 CNS = tested on: SNB-75 CNS
SW-620 colon = tested on: SW-620 colon
TK-10 renal = tested on: TK-10 renal
HOP-92 NSCLC = tested on: HOP-92 NSCLC
SF-268 CNS = tested on: SF-268 CNS
NCI/ADR-RES ovarian = tested on: NCI/ADR-RES ovarian
NCI-H460 lung = tested on: NCI-H460 lung
DU-145 prostate = tested on: DU-145 prostate
NCI-H226 lung = tested on: NCI-H226 lung
MDA-MB-231 breast = tested on: MDA-MB-231 breast
PC-3 prostate = tested on: PC-3 prostate
KM12 colon = tested on: KM12 colon
U251 CNS = tested on: U251 CNS
A498 renal = tested on: A498 renal
IGROV1 ovarian = tested on: IGROV1 ovarian
EKVX NSCLC = tested on: EKVX NSCLC
K-562 leukemia = tested on: K-562 leukemia
OVCAR-3 ovarian = tested on: OVCAR-3 ovarian
MALME-3M melanoma = tested on: MALME-3M melanoma
UO-31 renal = tested on: UO-31 renal

O=C(Nc1ccccc1C(F)(F)F)c1ccc(NC2=C(Cl)C(=O)N(Cc3ccccc3)C2=O)cc1
GI50 (SF-295 CNS): 31.8 µM
TGI (SF-295 CNS): > 100 µM
GI50 (HCT-15 colon): 4.19 µM
TGI (HCT-15 colon): > 100 µM
GI50 (RXF 393 renal): 13.8 µM
TGI (RXF 393 renal): 37.7 µM
GI50 (HCT-116 colon): 29.4 µM
TGI (HCT-116 colon): > 100 µM
GI50 (786-0 renal): 33.7 µM
TGI (786-0 renal): > 100 µM
GI50 (ACHN renal): 33.7 µM
TGI (ACHN renal): > 100 µM
GI50 (SNB-19 CNS): 36.6 µM
TGI (SNB-19 CNS): > 100 µM
GI50 (SK-MEL-28 melanoma): > 100 µM
TGI (SK-MEL-28 melanoma): > 100 µM
GI50 (A549 NSCLC): 40.5 µM
TGI (A549 NSCLC): > 100 µM
GI50 (SK-OV-3 ovarian): 57.7 µM
TGI (SK-OV-3 ovarian): > 100 µM
GI50 (CAKI-1 renal): 1.97 µM
TGI (CAKI-1 renal): 4.15 µM
GI50 (MDA-MB-435): 51.5 µM
TGI (MDA-MB-435): > 100 µM
GI50 (CCRF-CEM leukemia): 2.95 µM
TGI (CCRF-CEM leukemia): 12.7 µM
GI50 (UACC-62 melanoma): 18.1 µM
TGI (UACC-62 melanoma): 59.2 µM
GI50 (HCC-2998 colon): 16.3 µM
TGI (HCC-2998 colon): 35.6 µM
GI50 (M14 melanoma): 51.6 µM
TGI (M14 melanoma): > 100 µM
GI50 (HOP-62 NSCLC): 21.5 µM
TGI (HOP-62 NSCLC): 43.1 µM
GI50 (BT-549 breast): 24 µM
TGI (BT-549 breast): 58.3 µM
GI50 (LOX IMVI melanoma): 18.8 µM
TGI (LOX IMVI melanoma): > 100 µM
GI50 (NCI-H23 lung): 15.6 µM
TGI (NCI-H23 lung): 34.2 µM
GI50 (MCF7 breast): 7.33 µM
TGI (MCF7 breast): > 100 µM
GI50 (OVCAR-4 ovarian): 33.5 µM
TGI (OVCAR-4 ovarian): > 100 µM
GI50 (HT29 colon): > 100 µM
TGI (HT29 colon): > 100 µM
GI50 (T-47D breast): > 100 µM
TGI (T-47D breast): > 100 µM
GI50 (SR leukemia): 1.85 µM
TGI (SR leukemia): 3.86 µM
GI50 (UACC-257 melanoma): 28.7 µM
TGI (UACC-257 melanoma): 82.9 µM
GI50 (SF-539 CNS): 23 µM
TGI (SF-539 CNS): 59.5 µM
GI50 (OVCAR-5 ovarian): 58 µM
TGI (OVCAR-5 ovarian): > 100 µM
GI50 (RPMI-8226 leukemia): 8.4 µM
TGI (RPMI-8226 leukemia): > 100 µM
GI50 (COLO 205 colon): 98.1 µM
TGI (COLO 205 colon): > 100 µM
GI50 (MOLT-4 leukemia): 3.14 µM
TGI (MOLT-4 leukemia): 31.6 µM
GI50 (SN12C renal): 18.6 µM
TGI (SN12C renal): > 100 µM
GI50 (OVCAR-8 ovarian): 28.7 µM
TGI (OVCAR-8 ovarian): > 100 µM
GI50 (SK-MEL-2 melanoma): 40.6 µM
TGI (SK-MEL-2 melanoma): > 100 µM
GI50 (HS 578T breast): 43.6 µM
TGI (HS 578T breast): > 100 µM
GI50 (NCI-H522 lung): 40.3 µM
TGI (NCI-H522 lung): > 100 µM
GI50 (SK-MEL-5 melanoma): 48.7 µM
TGI (SK-MEL-5 melanoma): > 100 µM
GI50 (HL-60(TB) leukemia): 2.96 µM
TGI (HL-60(TB) leukemia): 17.6 µM
GI50 (SNB-75 CNS): 36.5 µM
TGI (SNB-75 CNS): > 100 µM
GI50 (SW-620 colon): > 100 µM
TGI (SW-620 colon): > 100 µM
GI50 (TK-10 renal): 17.6 µM
TGI (TK-10 renal): 52.5 µM
GI50 (HOP-92 NSCLC): 11.3 µM
TGI (HOP-92 NSCLC): 35.2 µM
GI50 (SF-268 CNS): 24.3 µM
TGI (SF-268 CNS): 94.6 µM
GI50 (NCI/ADR-RES ovarian): 39.3 µM
TGI (NCI/ADR-RES ovarian): > 100 µM
GI50 (NCI-H460 lung): 33.2 µM
TGI (NCI-H460 lung): > 100 µM
GI50 (DU-145 prostate): 34.2 µM
TGI (DU-145 prostate): > 100 µM
GI50 (NCI-H226 lung): 13.6 µM
TGI (NCI-H226 lung): 92.2 µM
GI50 (MDA-MB-231 breast): 12.8 µM
TGI (MDA-MB-231 breast): 38.4 µM
GI50 (PC-3 prostate): 12.2 µM
TGI (PC-3 prostate): > 100 µM
GI50 (KM12 colon): > 100 µM
TGI (KM12 colon): > 100 µM
GI50 (U251 CNS): 23.5 µM
TGI (U251 CNS): > 100 µM
GI50 (A498 renal): 38.3 µM
TGI (A498 renal): 89.4 µM
GI50 (IGROV1 ovarian): 19.3 µM
TGI (IGROV1 ovarian): 65.9 µM
GI50 (EKVX NSCLC): 86.9 µM
TGI (EKVX NSCLC): > 100 µM
GI50 (K-562 leukemia): 5.65 µM
TGI (K-562 leukemia): 80.5 µM
GI50 (OVCAR-3 ovarian): 13.1 µM
TGI (OVCAR-3 ovarian): 76.9 µM

COC1=C(OC)C(=O)C(Sc2ccc3ccccc3c2)=CC1=O
TGI (SF-295 CNS): 23.8 µM
TGI (HCT-15 colon): 44.7 µM
TGI (MALME-3M melanoma): 28.4 µM
TGI (RXF 393 renal): 22.1 µM
TGI (HCT-116 colon): 25.9 µM
TGI (786-0 renal): 16.3 µM
TGI (ACHN renal): 23.6 µM
TGI (SNB-19 CNS): 32.4 µM
TGI (SK-MEL-28 melanoma): 41.5 µM
TGI (A549 NSCLC): 32.3 µM
TGI (SK-OV-3 ovarian): 31.7 µM
TGI (CAKI-1 renal): 32.8 µM
TGI (MDA-MB-435): 29.8 µM
TGI (CCRF-CEM leukemia): 4.31 µM
TGI (UACC-62 melanoma): 20.5 µM
TGI (HCC-2998 colon): 26.1 µM
TGI (M14 melanoma): 21.8 µM
TGI (HOP-62 NSCLC): 32.7 µM
TGI (BT-549 breast): 22.5 µM
TGI (LOX IMVI melanoma): 30.6 µM
TGI (NCI-H23 lung): 33.1 µM
TGI (MCF7 breast): 43.9 µM
TGI (OVCAR-4 ovarian): 48.5 µM
TGI (HT29 colon): 37.8 µM
TGI (T-47D breast): 35.8 µM
TGI (SR leukemia): 7.95 µM
TGI (UACC-257 melanoma): 22.2 µM
TGI (SF-539 CNS): > 57.7 µM
TGI (UO-31 renal): 16.3 µM
TGI (OVCAR-5 ovarian): 37.2 µM
TGI (RPMI-8226 leukemia): 5.78 µM
TGI (COLO 205 colon): 23.7 µM
TGI (MOLT-4 leukemia): 4.86 µM
TGI (SN12C renal): 26.5 µM
TGI (OVCAR-8 ovarian): 82.4 µM
TGI (SK-MEL-2 melanoma): 31.4 µM
TGI (HS 578T breast): 53.4 µM
TGI (SK-MEL-5 melanoma): 13.9 µM
TGI (HL-60(TB) leukemia): 3.35 µM
TGI (SNB-75 CNS): 29.8 µM
TGI (SW-620 colon): > 61 µM
TGI (TK-10 renal): 27 µM
TGI (HOP-92 NSCLC): 45.6 µM
TGI (SF-268 CNS): 36.3 µM
TGI (NCI/ADR-RES ovarian): 69.6 µM
TGI (NCI-H460 lung): 43.4 µM
TGI (DU-145 prostate): 33.7 µM
TGI (NCI-H226 lung): 27.2 µM
TGI (MDA-MB-231 breast): 32.9 µM
TGI (PC-3 prostate): 26.1 µM
TGI (KM12 colon): 21.2 µM
TGI (U251 CNS): 21.4 µM
TGI (A498 renal): 29.6 µM
TGI (IGROV1 ovarian): 39 µM
TGI (EKVX NSCLC): 30.5 µM
TGI (K-562 leukemia): 10.3 µM
TGI (OVCAR-3 ovarian): 32.7 µM
